These results are taken from US20250170154A1 (GreenStone Biosciences, Inc., priority 2023, published 2025).

SMILES strings stand for the structures.

Data set [1] can be described thus: Intestinal stability, human intestinal S9. Format: in vitro ADME. The procedure: (§1) The stability of compounds 1 and 2, and the control compound 7-hydroxycoumarin, were measured using human, rat, and mouse intestinal S9 fractions (Xenotech). Test compound working solutions were prepared by diluting 5 μL of 10 mM stock solutions in DMSO with 495 μL AN. S9 solutions were prepared by diluting the obtained S9 solutions to 1.0 mg/mL in 100 mM potassium phosphate buffer at pH 7.4 containing 10 mM D-saccharic acid-1,4-lactone. An Apricot automation workstation was used to add 100 μL/well of S9 solution to all reaction plates (Blank, T0, T5, T15, T30, T45, T60 and NCF60); 2 μL/well of compound working solutions were added to all 96-well reaction plates except the blank (T0, T5, T15, T30, T45, T60, and NCF60); 600 μL/well of stop solution (4° C. ACN containing 200 ng/mL tolbutamide and 200 ng/mL labetalol as internal standards) was added to the T0 reaction plate; all plates were pre-incubated at 37° C. for 10 minutes; a cofactor regenerating system (98 μL/well) was added, excluding the NCF60 plate which instead received 98 μL/well of 100 mM potassium phosphate buffer. All plates were then incubated at 37° C. To terminate reactions, 600 μL/well of stop solution was applied at specific end time points. After sealing and a 10-minute shaking, plates were centrifuged at 4000 rpm and 4° C. for 20 minutes. Concurrently, 300 μL/well of HPLC grade water was loaded onto eight new 96-well bioanalysis plates. Post-centrifugation, 100 μL supernatant from each reaction plate was transferred to its corresponding bioanalysis plate, shaken for 10 minutes, and then subjected to LC-MS/MS analysis (Shimadzu LC-40D LC system coupled to a Sciex Qtrap 6500 Plus mass spectrometer, using both positive and negative ion modes).

Data set [2] can be described thus: Intestinal stability, rat intestinal S9. Type of data set: in vitro ADME. The protocol: as §1
Data set [3] is described as follows: Conjugate formation in intestinal S9 incubations. Type of data set: in vitro ADME, human, rat, mouse. The protocol: as §1, with “Concurrently, 300 μL/well of HPLC grade water was loaded onto eight new 96-well bioanalysis plates. Post-centrifugation, 100 μL supernatant from each reaction plate was transferred to its corresponding bioanalysis plate, shaken for 10 minutes, and then subjected to LC-MS/MS analysis (Shimadzu LC-40D LC system coupled to a Sciex Qtrap 6500 Plus mass spectrometer, using both positive and negative ion modes).” left out

In data set [4] the test system is LMNA^H222P/H222P mouse. As to the kind of experiment: Dilated cardiomyopathy model, echocardiography. The conditions noted are these: continuous 4 weeks by osmotic pumps. Type of data set: in vivo. The procedure: (§2) The LMNA^H222P/H222P mouse is a well-established model for studying dilated cardiomyopathy and heart failure, with cardiac dysfunction typically beginning to manifest at around 16 weeks of age. In this study, 16-week-old LMNA^H222P/H222P mice underwent baseline echocardiography prior to treatment. Compound 2 was then administered continuously for 4 weeks using osmotic pumps, with DMSO as the vehicle control. At the end of the treatment period, echocardiography was performed again to assess the impact of compound 2 on cardiac function compared to the control group. […] In a FLNC knockout model using the Myh6-Cre:FLNC^wt/F mouse, 16-week-old mice underwent baseline echocardiography, were treated with compound 2 at 50 mg/Kg/day or vehicle by gavage for 6 weeks, and underwent echocardiography to assess the change in cardiac function. […] The genistein phosphate derivatives of this invention are therefore expected to be useful for the treatment of subjects with dilated cardiomyopathy.

The test system of data set [5] is Myh6-Cre:FLNC^wt/F mouse. The data set is described as follows: FLNC knockout model, echocardiography. Type of data set: in vivo. The conditions noted are these: 50 mg/Kg/day by gavage for 6 weeks. The protocol: as §2
Data set [6] relates to patients with moderate to severe rheumatoid arthritis. The data set is described as follows: Randomized, double-blind, placebo-controlled study in rheumatoid arthritis. Type of data set: in vivo, human. The settings on record: oral 500 mg capsule once daily for 24 weeks; expected. The procedure:
Approximately 120 patients, ages 30-65, diagnosed with rheumatoid arthritis according to the 2010 ACR/EULAR classification criteria, are enrolled in a randomized, double-blind, placebo-controlled study to evaluate the efficacy of compound 2 in patients with moderate to severe rheumatoid arthritis. Participants are randomized to receive either oral compound 2 (500 mg capsule) or placebo once daily for a period of 24 weeks. The primary efficacy endpoint is the improvement in the Disease Activity Score-28 (DAS28) with C-reactive protein (CRP) at week 24. A clinically meaningful reduction in DAS28 score is defined as a reduction of ≥1.2 points from baseline. Secondary endpoints include: Improvement in physical function as measured by the Health Assessment Questionnaire Disability Index (HAQ-DI), reduction in morning stiffness and joint pain, and changes in levels of inflammatory cytokines such as TNF-α, IL-6, and IL-1β. […] Additionally, compound 2 is expected to reduce serum levels of pro-inflammatory cytokines and markers of joint damage such as matrix metalloproteinases (MMPs), thus providing evidence of its disease-modifying effects.

The mark [7] stands for this setting: intestinal S9 fraction, pH 7.4, read-out: intrinsic clearance rate.
The mark [8] stands for this setting: increases seen in control group.

Broadly, the half-life is the time in which the quantity being followed falls by half. Consider `O=c1c(-c2ccc(O)cc2)coc2cc(OCOP(=O)(O)O)cc(O)c12` [Compound 2, ((5-Hydroxy-3-(4-hydroxyphenyl)-4-oxo-4H-chromen-7-yl)oxy)methyl dihydrogen phosphate], for which the “normalized control factor remaining” value in data set [1] came to 56.6%. The half-life at 1 µM in data set [1] (intestinal S9 fraction, pH 7.4) was 26.8 min. For the same molecule, the microsomal CLint at 1 µM in data set [1] (setting [7]) turned out to be 51.7 µL/min/mg. The “normalized control factor remaining” value in data set [2] was determined as 68.6%. The molecule also had a half-life at 1 µM in data set [2] (intestinal S9 fraction, pH 7.4) of 48.3 min. The microsomal CLint at 1 µM in data set [2] (setting [7]) came out at 28.7 µL/min/mg. In addition, in data set [3], the “formation of glucuronidation, sulfation, and glutathione conjugates” value is “noticeable absence”. Moreover, in data set [4] (vs DMSO control group), the ejection fraction result is “reduced the decrease” and the fractional shortening entry was “reduced the decrease”. Further, in data set [4] (setting [8]), the left ventricular diameter entry is reported as “reduced” and the left ventricular volume entry is on record as “reduced”. Besides, in data set [5], the “contractility (fractional shortening) from baseline” value was “statistically significantly improved” and the “contractility over vehicle-treated animals” value is “improved”. For the same molecule, in data set [5] (over vehicle-treated animals), the “left ventricular end-diastolic diameter” value is “reduced” and the “left ventricular end-systolic diameter” value is listed as “reduced”. In addition, the “serum levels of pro-inflammatory cytokines” value in data set [6] is on record as “reduce”.
